Results taken from paper PMC9408872, “Harmicens, Novel Harmine and Ferrocene Hybrids: Design, Synthesis and Biological Activity” (International Journal of Molecular Sciences, 2022).

Experiments:
HCT116 cells = test: Cell cycle analysis (propidium iodide, flow cytometry); format: cell-based, human; conditions: 3 µM and 6 µM
Description: To that end, the cells were treated for 24 and 48 h with 3 µM and 6 µM concentrations of each compound, which corresponded to 0.5 × IC50 and IC50 values obtained in the MTT assay after 72 h, respectively. Afterward, the DNA was stained with propidium iodide and subjected to flow cytometry analysis.
HCT116 cells were seeded onto 6-well plates (2 × 10^5 cells per well). After 24 h, the tested compounds 28 and 36 were added at two concentrations—3 µM and 6 µM. After 24 h and 48 h, the attached cells were trypsinized, combined with floating cells, washed with phosphate buffer saline (PBS), fixed with 70% ethanol, and stored at −20 °C. Immediately before analysis, the cells were washed two times with PBS, treated with 0.1 μg/μL of RNAse A, and stained for 1 h on ice with 50 μg/mL of propidium iodide. The stained cells were then analyzed using a BD FACScalibur flow cytometer (20,000 counts were measured). The percentage of cells in each cell cycle phase was determined using FlowJo software (TreeStar Inc., San Francisco, CA, USA). The tests were performed in duplicate and repeated in two separate experiments. The average values from duplicates from one representative experiment ± SD are presented.

[1] = system: HepG2 (hepatocellular carcinoma); test: MTT cytotoxicity assay, HepG2; format: cell-based, human; conditions: 72 h, MTT; mean ± SD; read-out: IC50 HepG2
Description: (§1) The parent compound harmine, as well as the reference drug 5-fluorouracil, were used as positive controls.
(§2) The experiments were carried out on five human cell lines purchased from American Type Culture Collection (ATCC): HepG2 (hepatocellular carcinoma; ATCC® HB-8065™), SW620 (colorectal adenocarcinoma; ATCC® CCL-227™), HCT116 (colorectal carcinoma; ATCC® CCL-247™), MCF-7 (breast adenocarcinoma; ATCC® HTB-22™), and Hek293T (embryonic kidney cells; ATCC® CRL-3216™). All cell lines were cultured as monolayers and maintained in Dulbecco’s Modified Eagle Medium (DMEM) (Capricorn Scientific, Ebsdorfergrund, Germany) supplemented with 10% fetal bovine serum (FBS) (Capricorn Scientific, Ebsdorfergrund, Germany), 100 U/mL penicillin, and 100 µg/mL streptomycin (Capricorn Scientific, Ebsdorfergrund, Germany) in a humidified atmosphere with 5% CO2 at 37 °C. Cells were seeded in 96-well plates (Corning, Durham, NC, USA) at 5000–7000 cells per well (depending on the cell-doubling time of a specific cell line) in 0.1 mL media and cultured for 24 h. The next day, the medium was aspirated, and cells were treated for 72 h. Only the compounds that led to more than a 50% reduction in mitochondrial metabolic activity at a concentration of 50 µM were selected for further analysis. The following concentrations of selected compounds were used: 25, 10, 5, and 1 µM. Working dilutions were freshly prepared on the day of the testing. A fresh growth medium was added to untreated control cells, which were defined as 100% viable. DMSO (0.13%) in DMEM was considered a negative control. 5-Fluorouracil (5-FU) and harmine were used as positive controls. At the end of treatment, the medium was removed, and cells were incubated for 1 h with 0.5 mg/mL MTT (Abcam, Cambridge, MA, USA) dissolved in serum-deprived DMEM. The MTT-containing medium was then removed, and 0.1 mL isopropanol was added per well to lyse cells and dissolve formazan. The optical density was measured at 570 nm using a microplate reader (VICTOR3, PerkinElmer, Waltham, MA, USA). Each test point was performed in triplicate. The absorbance was directly proportional to the cell viability. The IC50 values (concentration required to decrease viability by 50%) were calculated by using nonlinear regression on the sigmoidal dose–response plots and are expressed as mean ± SD.

[2] = system: HCT116 (colorectal carcinoma); test: MTT cytotoxicity assay, HCT116; format: cell-based, human; conditions: for IC50: 72 h, MTT, mean ± SD, read-out: IC50 HCT116; for SI (HCT116): selectivity index: ratio of IC50 Hek293T to IC50 HCT116
Description: as §1, §2

[3] = system: SW620 (colorectal adenocarcinoma); test: MTT cytotoxicity assay, SW620; format: cell-based, human; conditions: 72 h, MTT; mean ± SD; read-out: IC50 SW620
Description: as §1, §2

[4] = system: P. falciparum Dd2 (multidrug-resistant) erythrocytic stages; test: In vitro drug sensitivity assay (HRP2-ELISA) against erythrocytic stages, PfDd2; format: cell-based; conditions: multidrug-resistant strain; three days incubation; mean ± SD; read-out: IC50 PfDd2
Description: (§3) The in vitro activity of harmicens 20–37 against the erythrocytic stages of CQ-sensitive (Pf3D7) and multidrug-resistant (PfDd2) P. falciparum strains was evaluated following a previously described method (Table 1).
(§4) The antiplasmodial activity of harmicens 20–37 was evaluated against two strains of P. falciparum (3D7—CQ-sensitive, Dd2—multidrug-resistant) as previously described using the histidine-rich protein 2 (HRP2) assay. Briefly, 96-well plates were pre-coated with the tested compounds in a three-fold dilution before ring-stage parasites were added to complete the culture medium at a hematocrit of 1.5% and parasitemia of 0.05%. After three days of incubation at 37 °C, 5% CO2, and 5% oxygen, plates were frozen until HRP2-ELISA analysis. All compounds were evaluated in duplicate in at least two independent experiments. The IC50 was determined using a nonlinear regression analysis of log concentration–response curves using the drc-package v0.9.0 of R v2.6.1 (R Foundation, Vienna, Austria).

[5] = system: P. falciparum 3D7 (CQ-sensitive) erythrocytic stages; test: In vitro drug sensitivity assay (HRP2-ELISA) against erythrocytic stages, Pf3D7; format: cell-based; conditions: for IC50: read-out: IC50 Pf3D7
Description: as §3, §4

[6] = system: MCF-7 (breast adenocarcinoma); test: cells; conditions: for IC50: read-out: IC50 MCF-7, 72 h, MTT, mean ± SD; for SI (MCF-7): selectivity index: ratio of IC50 Hek293T to IC50 MCF-7
Description: as §1, §2

[7] = system: Hek293T (embryonic kidney cells); test: MTT cytotoxicity assay, Hek293T; format: cell-based, human; conditions: noncancer cell line; 72 h, MTT; mean ± SD; read-out: IC50 Hek293T
Description: as §1, §2

[8] = CQ-sensitive strain, three days incubation, mean ± SD

| Compound | effect on cell cycle distribution after 24 h (HCT116 cells) | IC50 [1] | IC50 [2] | SI (HCT116) [2] | IC50 [3] | IC50 [4] | IC50 [5, 8] | IC50 [6] | SI (MCF-7) [6] | IC50 [7] | activity against MCF-7 relative to 5-FU (fold stronger) [6] | effect on cell cycle distribution after 48 h (HCT116 cells; 48 h) | decrease in antiplasmodial activity against Pf3D7 relative to harmicene 23 ([5]; 28 (methylene bridge) versus its counterpart 23) | IC50 Pf3D7 [5, 8] |
| --- | --- | --- | --- | --- | --- | --- | --- | --- | --- | --- | --- | --- | --- | --- |
| Cc1nccc2c1[nH]c1cc(OCCNC(=O)C[c-]3cccc3)ccc12.[Fe+2].c1cc[cH-]c1 [Compound 36, N-(2-((1-Methyl-9H-pyrido[3,4-b]indol-7-yl)oxy)ethyl)-2-ferrocenylacetamide] | G1 phase arrest only at a higher concentration | 7.4 ± 0.5 µM | 5.9 ± 1.3 µM | 1.4 | 4.2 ± 0.3 µM | 1.53 ± 0.06 µM | 0.42 ± 0.02 µM | 4.5 ± 0.3 µM | 1.9 | 8.4 ± 0.3 µM |  |  |  |  |
| Cc1nccc2c1[nH]c1ccc(OCc3cn(C[c-]4cccc4)nn3)cc12.[Fe+2].c1cc[cH-]c1 [Compound 27, 6-((1-(Ferrocenylmethyl)-1H-1,2,3-triazol-4-yl)methoxy)-1-methyl-9H-pyrido[3,4-b]indole] |  | 17 ± 0.3 µM | > 50 µM | < 0.9 | 8.1 ± 0.2 µM | 1.09 ± 0.01 µM | 0.31 ± 0.01 µM | 6.8 ± 0.2 µM | 6.3 | 43 ± 8.6 µM | 3–6.5 fold |  |  |  |
| Cc1nccc2c1[nH]c1cc(OCCn3cc(-[c-]4cccc4)nn3)ccc12.[Fe+2].c1cc[cH-]c1 [Compound 23, 1-Methyl-7-(2-(4-ferrocenyl-1H-1,2,3-triazol-1-yl)ethoxy)-9H-pyrido[3,4-b]indole] |  | 9.5 ± 0.5 µM | 38.6 ± 2.8 µM | 0.4 | 7.6 ± 0.1 µM | 1.02 ± 0.52 µM | 0.15 ± 0.05 µM | 8 ± 0.2 µM | 2.1 | 17.1 ± 1.8 µM |  |  |  |  |
| Cc1nccc2c1[nH]c1cc(OCc3cn(C[c-]4cccc4)nn3)ccc12.[Fe+2].c1cc[cH-]c1 [Compound 28, 7-((1-(Ferrocenylmethyl)-1H-1,2,3-triazol-4-yl)methoxy)-1-methyl-9H-pyrido[3,4-b]indole] | statistically significant increase in cells in the G1 phase at both tested concentrations | > 50 µM | 7.4 ± 0.4 µM | >6.8 | > 50 µM | > 56 µM | > 56 µM | > 50 µM | >1 | > 50 µM |  | pronounced G2/M cell cycle arrest | 370 fold | inactive at the highest concentration tested |
| Cc1nc(-c2cn(C[c-]3cccc3)nn2)cc2c1[nH]c1ccccc12.[Fe+2].c1cc[cH-]c1 [Compound 26, 3-(1-(Ferrocenylmethyl)-1H-1,2,3-triazol-4-yl)-1-methyl-9H-pyrido[3,4-b]indole] |  | 12.3 ± 5 µM | 35.2 ± 4.7 µM | 1.3 | 3.8 ± 0.4 µM | 4.02 ± 0.61 µM | 2.63 ± 0.27 µM | 3.7 ± 0.2 µM | 12.6 | 46.5 ± 1 µM | 3–6.5 fold |  |  |  |
| 9-((1-(Ferocenylmethyl)-1H-1,2,3-triazol-4-yl)methyl)-7-methoxy-1-methyl-9H-pyrido[3,4-b]indole [Compound 29] |  | > 50 µM | 14.6 ± 3.7 µM | >3.4 | > 50 µM | 2.91 ± 0.05 µM | 2.12 ± 0.81 µM | > 50 µM | >1 | > 50 µM |  |  |  |  |
